# Experimental data taken from ChEMBL document CHEMBL3822398, “Design, synthesis and in vitro biological evaluation of short-chain C12-sphinganine and its 1,2,3-triazole analogs as potential antimicrobial and anti-biofilm agents” (Eur J Med Chem, 2016).
# Active and inactive are the calls of the source. No cut-off for these calls is given here.
# Columns and labels:
# Staphylococcus aureus [1] = test: Antibacterial activity against Staphylococcus aureus MTCC 96 incubated for 24 hrs at 37 degC by well diffusion method; format: functional; details: MTCC 96, 24 h
# Bacillus subtilis [2] = test: Antibacterial activity against Bacillus subtilis MTCC 121 incubated for 24 hrs at 37 degC by well diffusion method; format: functional; details: MTCC 121, 24 h
# Staphylococcus aureus [3] = test: Antibacterial activity against Staphylococcus aureus MLS16 MTCC 2940 incubated for 24 hrs at 37 degC by well diffusion method; format: functional; details: MLS16 MTCC 2940, 24 h
# Micrococcus luteus [4] = test: Antibacterial activity against Micrococcus luteus MTCC 2470 incubated for 24 hrs at 37 degC by well diffusion method; format: functional; details: MTCC 2470, 24 h
# Raoultella planticola [5] = test: Antibacterial activity against Klebsiella planticola MTCC 530 incubated for 24 hrs at 37 degC by well diffusion method; format: functional; details: MTCC 530, 24 h
# Escherichia coli [6] = test: Antibacterial activity against Escherichia coli MTCC 739 incubated for 24 hrs at 37 degC by well diffusion method; format: functional; details: MTCC 739, 24 h
# Pseudomonas aeruginosa = test: Antibacterial activity against Pseudomonas aeruginosa MTCC 2453 incubated for 24 hrs at 37 degC by well diffusion method; format: functional; details: MTCC 2453, 24 h
# Candida albicans [7] = test: Antifungal activity against Candida albicans MTCC 183 incubated for 24 hrs at 30 degC by well diffusion method; format: functional; details: MTCC 183, 24 h
# Candida albicans [8] = test: Antifungal activity against Candida albicans MTCC 227 incubated for 24 hrs at 30 degC by well diffusion method; format: functional; details: MTCC 227, 24 h
# Candida albicans [9] = test: Antifungal activity against Candida albicans MTCC 854 incubated for 24 hrs at 30 degC by well diffusion method; format: functional; details: MTCC 854, 24 h
# Candida albicans [10] = test: Antifungal activity against Candida albicans MTCC 1637 incubated for 24 hrs at 30 degC by well diffusion method; format: functional; details: MTCC 1637, 24 h
# Candida albicans [11] = test: Antifungal activity against Candida albicans MTCC 3017 incubated for 24 hrs at 30 degC by well diffusion method; format: functional; details: MTCC 3017, 24 h
# Candida albicans [12] = test: Antifungal activity against Candida albicans MTCC 3018 incubated for 24 hrs at 30 degC by well diffusion method; format: functional; details: MTCC 3018, 24 h
# Candida albicans [13] = test: Antifungal activity against Candida albicans MTCC 3958 incubated for 24 hrs at 30 degC by well diffusion method; format: functional; details: MTCC 3958, 24 h
# Candida albicans [14] = test: Antifungal activity against Candida albicans MTCC 4748 incubated for 24 hrs at 30 degC by well diffusion method; format: functional; details: MTCC 4748, 24 h
# Candida albicans [15] = test: Antifungal activity against Candida albicans MTCC 7315 incubated for 24 hrs at 30 degC by well diffusion method; format: functional; details: MTCC 7315, 24 h
# Candida parapsilosis [16] = test: Antifungal activity against Candida parapsilosis MTCC 1744 incubated for 24 hrs at 30 degC by well diffusion method; format: functional; details: Lodderomyces parapsilosis, MTCC 1744, 24 h
# [Candida] aaseri [17] = Antifungal activity against Candida aaseri MTCC 1962 incubated for 24 hrs at 30 degC by well diffusion method; format: functional; details: Yamadazyma aaseri, MTCC 1962, 24 h
# Nakaseomyces glabratus [18] = test: Antifungal activity against Candida glabrata MTCC 3019 incubated for 24 hrs at 30 degC by well diffusion method; format: functional; details: MTCC 3019, 24 h
# Pichia kudriavzevii [19] = test: Antifungal activity against Candida krusei MTCC 3020 incubated for 24 hrs at 30 degC by well diffusion method; format: functional; details: MTCC 3020, 24 h
# Pichia sporocuriosa [20] = test: Antifungal activity against Issatchenkia hanoiensis MTCC 4755 incubated for 24 hrs at 30 degC by well diffusion method; format: functional; details: MTCC 4755, 24 h
# Staphylococcus aureus [21] = test: Bactericidal activity against Staphylococcus aureus MTCC 96 incubated for 24 hrs; format: functional; details: MTCC 96, 24 h
# Bacillus subtilis [22] = test: Bactericidal activity against Bacillus subtilis MTCC 121 incubated for 24 hrs; format: functional; details: MTCC 121, 24 h
# Staphylococcus aureus [23] = test: Bactericidal activity against Staphylococcus aureus MLS16 MTCC 2940 incubated for 24 hrs; format: functional; details: MLS16 MTCC 2940, 24 h
# Micrococcus luteus [24] = test: Bactericidal activity against Micrococcus luteus MTCC 2470 incubated for 24 hrs; format: functional; details: MTCC 2470, 24 h
# Raoultella planticola [25] = test: Bactericidal activity against Klebsiella planticola MTCC 530 incubated for 24 hrs; format: functional; details: MTCC 530, 24 h
# Escherichia coli [26] = test: Bactericidal activity against Escherichia coli MTCC 739 incubated for 24 hrs; format: functional; details: MTCC 739, 24 h
# Candida albicans [27] = test: Fungicidal activity against Candida albicans MTCC 183 incubated for 24 hrs; format: functional; details: MTCC 183, 24 h
# Candida albicans [28] = test: Fungicidal activity against Candida albicans MTCC 227 incubated for 24 hrs; format: functional; details: MTCC 227, 24 h
# Candida albicans [29] = test: Fungicidal activity against Candida albicans MTCC 854 incubated for 24 hrs; format: functional; details: MTCC 854, 24 h
# Candida albicans [30] = test: Fungicidal activity against Candida albicans MTCC 1637 incubated for 24 hrs; format: functional; details: MTCC 1637, 24 h
# Candida albicans [31] = test: Fungicidal activity against Candida albicans MTCC 3017 incubated for 24 hrs; format: functional; details: MTCC 3017, 24 h
# Candida albicans [32] = test: Fungicidal activity against Candida albicans MTCC 3018 incubated for 24 hrs; format: functional; details: MTCC 3018, 24 h
# Candida albicans [33] = test: Fungicidal activity against Candida albicans MTCC 3958 incubated for 24 hrs; format: functional; details: MTCC 3958, 24 h
# Candida albicans [34] = test: Fungicidal activity against Candida albicans MTCC 4748 incubated for 24 hrs; format: functional; details: MTCC 4748, 24 h
# Candida albicans [35] = test: Fungicidal activity against Candida albicans MTCC 7315 incubated for 24 hrs; format: functional; details: MTCC 7315, 24 h
# Candida parapsilosis [36] = test: Fungicidal activity against Candida parapsilosis MTCC 1744 incubated for 24 hrs; format: functional; details: Lodderomyces parapsilosis, MTCC 1744, 24 h
# [Candida] aaseri [37] = Fungicidal activity against Candida aaseri MTCC 1962 incubated for 24 hrs; format: functional; details: Yamadazyma aaseri, MTCC 1962, 24 h
# Nakaseomyces glabratus [38] = test: Fungicidal activity against Candida glabrata MTCC 3019 incubated for 24 hrs; format: functional; details: MTCC 3019, 24 h
# Pichia kudriavzevii [39] = test: Fungicidal activity against Candida krusei MTCC 3020 incubated for 24 hrs; format: functional; details: MTCC 3020, 24 h
# Pichia sporocuriosa [40] = test: Fungicidal activity against Issatchenkia hanoiensis MTCC 4755 incubated for 24 hrs; format: functional; details: MTCC 4755, 24 h
# Candida albicans [41] = test: Antibiofilm activity against Candida albicans MTCC 227 after 24 hrs by crystal violet staining based assay; format: functional, organism-based; details: MTCC 227, 24 h
# Micrococcus luteus [42] = test: Antibiofilm activity against Micrococcus luteus MTCC 2470 after 24 hrs by crystal violet staining based assay; format: functional, organism-based; details: MTCC 2470, 24 h
# Staphylococcus aureus [43] = test: Antibiofilm activity against Staphylococcus aureus MTCC 96 after 24 hrs by crystal violet staining based assay; format: functional, organism-based; details: MTCC 96, 24 h
# Candida albicans [44] = test: Induction of ROS accumulation in Candida albicans MTCC 227 sessile cells at 2 to 8 ug/ml incubated for 24 hrs by DCFH-DA dye based microplate reader analysis; format: functional, organism-based
smiles,measurement,setting,value
CCCCCCCCC[C@@H](O)[C@H](CO)n1cc(-c2cccc(O)c2)nn1,MIC,Staphylococcus aureus [1],7.8 µg/mL
same,MIC,Bacillus subtilis [2],7.8 µg/mL
same,MIC,Staphylococcus aureus [3],7.8 µg/mL
same,MIC,Micrococcus luteus [4],3.9 µg/mL
same,MIC,Raoultella planticola [5],15.6 µg/mL
same,MIC,Escherichia coli [6],> 250 µg/mL
same,MIC,Pseudomonas aeruginosa,> 250 µg/mL
same,MIC,Candida albicans [7],7.8 µg/mL
same,MIC,Candida albicans [8],3.9 µg/mL
same,MIC,Candida albicans [9],3.9 µg/mL
same,MIC,Candida albicans [10],15.6 µg/mL
same,MIC,Candida albicans [11],7.8 µg/mL
same,MIC,Candida albicans [12],7.8 µg/mL
same,MIC,Candida albicans [13],15.6 µg/mL
same,MIC,Candida albicans [14],7.8 µg/mL
same,MIC,Candida albicans [15],31.2 µg/mL
same,MIC,Candida parapsilosis [16],15.6 µg/mL
same,MIC,[Candida] aaseri [17],7.8 µg/mL
same,MIC,Nakaseomyces glabratus [18],7.8 µg/mL
same,MIC,Pichia kudriavzevii [19],15.6 µg/mL
same,MIC,Pichia sporocuriosa [20],7.8 µg/mL
same,MBC,Staphylococcus aureus [21],7.8 µg/mL
same,MBC,Bacillus subtilis [22],15.6 µg/mL
same,MBC,Staphylococcus aureus [23],15.6 µg/mL
same,MBC,Micrococcus luteus [24],3.9 µg/mL
same,MBC,Raoultella planticola [25],15.6 µg/mL
same,MBC,Escherichia coli [26],> 250 µg/mL
same,MFC,Candida albicans [27],15.6 µg/mL
same,MFC,Candida albicans [28],3.9 µg/mL
same,MFC,Candida albicans [29],7.8 µg/mL
same,MFC,Candida albicans [30],15.6 µg/mL
same,MFC,Candida albicans [31],7.8 µg/mL
same,MFC,Candida albicans [32],15.6 µg/mL
same,MFC,Candida albicans [33],31.2 µg/mL
same,MFC,Candida albicans [34],15.6 µg/mL
same,MFC,Candida albicans [35],31.2 µg/mL
same,MFC,Candida parapsilosis [36],15.6 µg/mL
same,MFC,[Candida] aaseri [37],15.6 µg/mL
same,MFC,Nakaseomyces glabratus [38],7.8 µg/mL
same,MFC,Pichia kudriavzevii [39],31.2 µg/mL
same,MFC,Pichia sporocuriosa [40],7.8 µg/mL
same,IC50,Candida albicans [41],1.9 µg/mL
same,IC50,Micrococcus luteus [42],2.1 µg/mL
same,IC50,Staphylococcus aureus [43],2.9 µg/mL
same,Activity,Candida albicans [44],Active
CCCCCCCCC[C@@H](O)[C@H](CO)n1cc(-c2ccccc2)nn1,MIC,Staphylococcus aureus [1],7.8 µg/mL
same,MIC,Bacillus subtilis [2],15.6 µg/mL
same,MIC,Staphylococcus aureus [3],15.6 µg/mL
same,MIC,Micrococcus luteus [4],3.9 µg/mL
same,MIC,Raoultella planticola [5],31.2 µg/mL
same,MIC,Escherichia coli [6],> 250 µg/mL
same,MIC,Pseudomonas aeruginosa,> 250 µg/mL
same,MIC,Candida albicans [7],62.5 µg/mL
same,MIC,Candida albicans [8],31.2 µg/mL
same,MIC,Candida albicans [9],62.5 µg/mL
same,MIC,Candida albicans [10],125 µg/mL
same,MIC,Candida albicans [11],62.5 µg/mL
same,MIC,Candida albicans [12],125 µg/mL
same,MIC,Candida albicans [13],62.5 µg/mL
same,MIC,Candida albicans [14],125 µg/mL
same,MIC,Candida albicans [15],62.5 µg/mL
same,MIC,Candida parapsilosis [16],31.2 µg/mL
same,MIC,[Candida] aaseri [17],31.2 µg/mL
same,MIC,Nakaseomyces glabratus [18],62.5 µg/mL
same,MIC,Pichia kudriavzevii [19],62.5 µg/mL
same,MIC,Pichia sporocuriosa [20],62.5 µg/mL
same,MBC,Staphylococcus aureus [21],15.6 µg/mL
same,MBC,Bacillus subtilis [22],15.6 µg/mL
same,MBC,Staphylococcus aureus [23],31.2 µg/mL
same,MBC,Micrococcus luteus [24],7.8 µg/mL
same,MBC,Raoultella planticola [25],62.5 µg/mL
same,MBC,Escherichia coli [26],> 250 µg/mL
same,MFC,Candida albicans [27],62.5 µg/mL
same,MFC,Candida albicans [28],62.5 µg/mL
same,MFC,Candida albicans [29],62.5 µg/mL
same,MFC,Candida albicans [30],125 µg/mL
same,MFC,Candida albicans [31],125 µg/mL
same,MFC,Candida albicans [32],125 µg/mL
same,MFC,Candida albicans [33],125 µg/mL
same,MFC,Candida albicans [34],125 µg/mL
same,MFC,Candida albicans [35],62.5 µg/mL
same,MFC,Candida parapsilosis [36],62.5 µg/mL
same,MFC,[Candida] aaseri [37],31.2 µg/mL
same,MFC,Nakaseomyces glabratus [38],62.5 µg/mL
same,MFC,Pichia kudriavzevii [39],62.5 µg/mL
same,MFC,Pichia sporocuriosa [40],125 µg/mL
